The record followed here is patent publication US20140135293A1, “ALLENE DERIVATIVES AS SPHINGOSINE 1-PHOSPHATE (S1P) RECEPTOR MODULATORS” (ALLERGAN, INC., priority 2012, published 2014).

Usually EC50 stands for the midpoint of the concentration-response curve.

The target of this test is T1, human S1P1 receptor (Homo sapiens, UniProt P21453).
T1 construct: expressed in transfected cells; membranes used
T1 sequence (P21453 whole entry): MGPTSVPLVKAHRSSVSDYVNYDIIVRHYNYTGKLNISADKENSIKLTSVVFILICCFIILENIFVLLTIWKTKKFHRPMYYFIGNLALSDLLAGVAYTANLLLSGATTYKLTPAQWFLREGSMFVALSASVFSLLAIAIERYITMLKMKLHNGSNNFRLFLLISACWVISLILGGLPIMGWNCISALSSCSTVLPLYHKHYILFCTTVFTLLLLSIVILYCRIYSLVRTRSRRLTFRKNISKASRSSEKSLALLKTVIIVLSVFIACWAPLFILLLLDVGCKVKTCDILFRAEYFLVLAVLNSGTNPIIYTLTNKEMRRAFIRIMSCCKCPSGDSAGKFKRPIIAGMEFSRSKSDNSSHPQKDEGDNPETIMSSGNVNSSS
The experiment in a line: GTP y35S binding assay for S1P1 activity. It counts as biochemical. To be noted: membranes of cells stably expressing the S1P1 receptor, agonist potency. How it is done: Compounds were synthesized and tested for S1P1 activity using the GTP y^35S binding assay. These compounds may be assessed for their ability to activate or block activation of the human S1P1 receptor in cells stably expressing the S1P1 receptor.
GTP y^35S binding was measured in the medium containing (mM) HEPES 25, pH 7.4, MgCl2 10, NaCl 100, dithitothreitol 0.5, digitonin 0.003%, 0.2 nM GTP y^35S, and 5 μg membrane protein in a volume of 150 μl. Test compounds were included in the concentration range from 0.08 to 5,000 nM unless indicated otherwise. Membranes were incubated with 100 μM […] for 30 min, and subsequently with 10 μM GDP for 10 min on ice. Drug solutions and membrane were mixed, and then reactions were initiated by adding GTP y^35S and continued for 30 min at 25° C. Reaction mixtures were filtered over Whatman GF/B filters under vacuum, and washed three times with 3 mL of ice-cold buffer (HEPES 25, pH7.4, MgCl2 10 and NaCl 100). Filters were dried and mixed with scintillant, and counted for ^35S activity using a ([…]. Agonist-induced GTP y^35S binding was obtained by subtracting that in the absence of agonist. Binding data were analyzed using a non-linear regression method. In case of antagonist assay, the reaction mixture contained 10 nM […] in the presence of test antagonist at concentrations ranging from 0.08 to 5000 nM.
On to `Cc1ccc(CC(=C=Cc2ccc(CNCCCP(=O)(O)O)cc2-c2ccco2)c2cc(F)cc(F)c2)cc1C` [Compound 2, [3-({4-[3-(3,5-Difluorophenyl)-4-(3,4-dimethylphenyl)buta-1,2-dien-1-yl]-3-(2-furyl)benzyl}amino)propyl]phosphonic acid], for which it took 58.5 nM to reach a half-maximal effect (EC50). `CCc1cc(C=C=C(Cc2ccc(C)c(C)c2)c2cc(F)cc(F)c2)ccc1CNCCCP(=O)(O)O` [Compound 3, [3-({4-[3-(3,5-Difluorophenyl)-4-(3,4-dimethylphenyl)buta-1,2-dien-1-yl]-2-ethylbenzyl}amino)propyl]phosphonic acid] showed an EC50 of 1640 nM. Compared with the last compound, the EC50 is about 28-fold higher. As for `Cc1ccc(CC(=C=Cc2ccc(CNCCCP(=O)(O)O)cc2-c2cccs2)c2cc(F)cc(F)c2)cc1C` [Compound 1, [3-({4-[3-(3,5-difluorophenyl)-4-(3,4-dimethylphenyl)buta-1,2-dien-1-yl]-3-(2-thienyl)benzyl}amino)propyl]phosphonic acid], the figure is 58.4 nM.
